Data on four molecules can be found in patent US12691124B2, “Methods of controlling and improving brain health” (ICAHN SCHOOL OF MEDICINE AT MOUNT SINAI, priority 2019, dated 2026).

One assay deals with 3xTg mouse model. As to conditions: prolonged JQ1 treatment; cited from earlier work.
Assay [1] relates to wild type and APP/PS1-21 mice. As to conditions: cited from earlier work.
Assay [2] deals with primary cortical neurons. Description: Neuronal longevity in primary cortical neuron culture (LDH, propidium iodide, cleaved caspase 3). The assay is classed as cell-based, mouse. As to conditions: PLX5622 together with IBET858. An excerpt:
Primary Cortical Neuron Culture. Embryonic day 18 (E18) timed-pregnant female mice were anesthetized with CO2 and sacrificed by cervical dislocation. In a dissection hood, 24-26 embryos per experiment were collected through an incision of the mother's abdomen, taken out of the amniotic sacs and decapitated in ice cold Hank's Balanced Salt Solution (HBSS). Using fine scissors and forceps, brains were rapidly dissected and the cortex cleared from meninges and isolated under a dissection microscope. Cortices were collected in ice cold HBSS and kept on ice until all embryos had been dissected. In a tissue culture hood, HBSS was removed and the cortex tissue digested by 0.25% Trypsin-EDTA for 12 minutes at 37° C., followed by DNase1 treatment for 10 minutes at 37° C. The tissue was dissociated by serial trituration with a 25 ml serological pipette, followed by trituration with 10 ml and 5 ml serological pipettes. Cell suspension was washed once with DMEM medium, supplemented with 10% FBS and 1% penicillin/streptomycin and passed through a […] cell strainer before counted on a hemocytometer. Single cells were seeded on poly-D-lysine (0.1 mg ml-1) coated wells at a density of 1×10^6 cells per well on a 12-well plate. Cells were grown in Neurobasal medium, complemented with B27 supplement, N2 supplement, and 0.5 mM L-glutamine and maintained at 37° C. in 5% CO2 for 1 week. Cultures were treated with DMSO (0.2%), I-BET858 (1 μM, 0.2% DMSO), BDNF (50 ng/ml), or BDNF+I-BET858 for 2 and 12 h on day 7 in vitro. Cultures were washed with phosphate-buffered saline (PBS) on ice and processed for RNA isolation using TRIzol/Chloroform extraction.
LDH Assay. LDH activity was measured using the Pierce LDH Cytotoxicity Assay Kit. Culture media was incubated with an equal volume of LDH master mix and incubated for 30 minutes at room temperature in the dark. After, the same volume of stop reagent was added and the absorbance was measured at 490 and 680 nm. Maximum LDH measurements were obtained by adding lysis buffer to release the total amount of LDH in the sample. LDH release is calculated as a percent of the maximum.
Propidium Iodide Assay. Propidium iodide (1 mg/ml, Life Technologies #P3566) was added to each culture well at a final concentration of 0.5 μg/ml. Cultures were incubated for 30 minutes at 37 degrees then washed with PBS. Cells were then fixed with 4% paraformaldehyde in PBS for 15 minutes at room temperature. After fixation, cells were washed with PBS and then mounted using mounting media containing DAPI.
In order to understand the effect of chronic BET inhibition on neuronal survival, primary cortical mouse neurons were cultured in the presence or absence of the brain permeable BET inhibitor IBET858 (1 μM). To quantify cell death over time, the levels of lactate dehydrogenase (LDH) were measured in culture media which is presumably released during cell death as the membranes become permeable. […] The observed decrease in LDH activity after BET inhibition occurs in a dose-dependent manner. LDH activity, which is an indirect measure of cell death, may be affected by other factors such as changes in metabolism or expression of the LDH genes. Therefore in order to confirm these findings, propidium iodide (PI) staining was used to directly quantify the number of dead neurons over time. This membrane impermeable dye increases in fluorescence 20-30 fold after intercalating DNA265. […] To give context to the magnitude of this effect on survival, this experiment was repeated with a direct comparison to the mTOR inhibitor, rapamycin (20 nM).

The test system of the next assay is microglia. Description: Microglia depletion by PLX in wild type mice. Particulars: mouse, in vivo. An excerpt: These models both have strong inflammatory components to their pathology; however it is important to understand the mechanism by which IBET858 improves symptoms. If the pathology is driven by microglial-mediated inflammation, it was hypothesized that depleting microglia from the brain should prevent neuronal degeneration and memory deficits as well. Therefore a pharmacological approach was used to deplete microglia in vivo by inhibiting the colony stimulating factor receptor 1 (CSF1R) which is required for microglial survival and kills 99% of microglia in one week in wild type mice. Elmore et al., “Colony-Stimulating Factor 1 Receptor Signaling is Necessary for Microglia Viability, Unmasking a Microglia Progenitor Cell in the Adult Brain,” Neuron 82:380-397 (2014), which is hereby incorporated by reference in its entirety.
First, the PLX5622-mediated mediated reduction in microglia numbers is not sufficient to reduce inflammatory gene expression to the level that not only allows neuronal survival but also normal function. Second, while IBET858 clearly dampens microglia-mediated inflammation, its neuroprotective effect cannot be solely attributed to microglia and may in fact be a combinatorial effect on other cell types in the brain.

A further assay relates to CK-p25 mice. Description: p25 (CK-p25) mouse model of Alzheimer's disease. Format: in vivo.
For a further assay, the system named is BET proteins. As to conditions: cited from earlier work.
Assay [3] has as its system primary cortical neurons. Description: Polar metabolite mass spectrometry in primary cortical neurons. The assay is classed as cell-based, mouse. As to conditions: acute exposure 24 h, 50 nM. The protocol: Mass Spectrometry. Cell culture plates (2e6 cells per well n=7-8 per group) were washed with 75 mM Ammonium bicarbonate, pH 7.4, warmed to 37 degrees. Plates were quenched on liquid nitrogen for 10 seconds and then placed on dry ice. 1 ml of 70% Ethanol in MS-grade water was warmed to 75 degrees and added to each well. Plates were incubated in a 75 degree water bath for 3 minutes, shaking gently every minute. After 3 minutes, plates were placed on dry ice and once cooled, supernatants were lyophilized using the speed vacuum and stored at −80 degrees. Samples were shipped on dry ice to Cellzome who processed the samples for mass spectrometry and performed the initial analysis annotating metabolites. A semi-quantitative approach was used which determines the metabolite levels relative to a control rather than absolute concentrations. All detected ions were used for statistical analysis regardless of how many samples they were detected. This allows for the identification of low-abundant metabolites that may be present in only a subset of samples.
If IBET858 is indeed decreasing metabolism as indicated, comprehensive metabolic changes after BET inhibition should be observed. Therefore, an unbiased analysis of polar metabolites via mass spectrometry was employed (FIGS. 12A-12C). Accordingly, the levels of 100-150 unique metabolites are changed by chronic BET inhibition in primary cortical neurons.

With `Cc1sc2c(c1C)C(c1ccc(Cl)cc1)=N[C@@H](CC(=O)OC(C)(C)C)c1nnc(C)n1-2` [JQ1], in the assay on 3xTg mouse model, the “level of phosphorylated tau” value was “decreased”; the “memory and learning deficits” value is “did not have any effect”. Besides, the “cognitive deficits in APP/PS1-21 mouse model” value in assay [1] (APP/PS1-21) is “rescued cognitive deficits”. Further, the “memory, fear conditioning paradigm in wild type mice” value in assay [1] (wild type mice) is recorded as “enhanced memory”.
For the molecule `COc1ncc(F)cc1CNc1ccc(Cc2c[nH]c3ncc(C)cc23)c(F)n1` [PLX5622], the “neuronal longevity after IBET858 on pharmacological depletion of microglia” value in the assay on primary cortical neurons [2] is recorded as “did not alter longevity”. Besides, the “microglia after PLX in wild type mice” value with microglia is reported as “fully depleted”. Further, in the assay on CK-p25 mice (CK-p25 mice treated with PLX), the “number of microglia compared to wild-type controls” value is “twice the number of microglia”. Also, in the assay with CK-p25 mice (PLX5622), the “contextual recall (memory deficits)” value is listed as “made contextual recall worse”; the “neuronal and synapse loss” value is “prevented neuronal and synapse loss”.
With `Oc1ccc(C=Cc2cc(O)cc(O)c2)cc1` [Resveratrol, resveratrol], the “inhibition of BET proteins” value in the assay with BET proteins is listed as “weakly inhibit”.
As for `C=C(C)[C@H]1Cc2c(ccc3c2O[C@@H]2COc4cc(OC)c(OC)cc4[C@@H]2C3=O)O1` [Rotenone, reference compound], the metabolites changed with primary cortical neurons [3] is listed as 300-500 metabolites.
